Test results from patent US10851403B2, “Cyclin-dependent kinase substrate” (SYSMEX CORPORATION, priority 2017, dated 2020).
No end group written: not given here. *: point of attachment. Biotin = O=C1N[C@H]2[C@H](CS[C@H]2CCCCC(=O)*)N1; Ahx = NCCCCCC(=O)O

Legend:
Assay type in all cases: biochemical
CDK4 and CDK6 = assay: CDK reactivity test 2 (Test Example 2), CDK4/6 reactivity; details: [(V2/V1)+(V4/V3)]/2; relative value when Comparative Polypeptide 2 is set as 1
Description: (§1) In a tube, 15 μL of a CDK solution (composition: 10 μg/mL CDK/cyclin complex, 1% BSA, triethanolamine buffer solution (pH 7.5)) containing CDK1/cyclin A2, CDK2/cyclin E1, CDK4/cyclin D3 or CDK6/cyclin D3 (all manufactured by SignalChem) and 15 μL of a kinase reaction solution (composition: 4 μg/mL substrate peptide, 50 mM HEPES-NaOH buffer solution (pH 7.4), 15 mM MgCl2, 2 mM ATP-γS) containing Polypeptide 1, Comparative Polypeptide 1 or Comparative Polypeptide 2 as a substrate peptide were mixed, and the tube was incubated at 37° C. for 1 hour with stirring at 900 rpm using a constant temperature shaker. 21.4 μL of a fluorescent labeling reagent (composition: 180 μg/ml 5-(iodoacetamide)-FITC, 50 mM EDTA, 300 mM MOPS-NaOH, pH 7.4) was added to the tube and pipetted 5 times, then the tube was shielded from light and incubated at 37° C. for 10 minutes with stirring at 400 rpm using a constant temperature shaker. 100 μL of a fluorescent labeling reaction stop solution (composition: 30 mM N-acetyl-L-cysteine, 2 M MOPS-NaOH, pH 7.4) was added to the tube and pipetted 5 times. 30 μL (containing 0.15 μg of magnetic St-Ab beads) of a HISCL HBsAg R2 reagent (manufactured by Sysmex Corporation) was added to the tube, then the tube was shielded from light and incubated at 37° C. for about 10 minutes with stirring at 1600 rpm using a constant temperature shaker. The beads in the tube were precipitated using a magnet, and the supernatant was removed. Then, TBS-T was added, and the beads were washed at 37° C. for about 10 seconds with stirring at 1600 rpm. This washing step was performed three times in total. 100 μL of an ALP-labeled anti-FITC antibody solution (composition: 0.2 to 1 μg/mL ALP-labeled anti-FITC antibody (manufactured by Jackson ImmunoResearch Laboratories, Inc.), 100 mM MES, 150 mM NaCl, 1% BSA, pH 6.5) was added to the tube, then the tube was shielded from light and incubated at 37° C. for about 10 minutes with stirring at 1600 rpm using a constant temperature shaker. The beads in the tube were precipitated using a magnet, and the supernatant was removed. Then, TBS-T was added, and the beads were washed at 37° C. for about 10 seconds with stirring at 1600 rpm. This washing step was performed three times in total. 50 μL of a buffer solution containing Tris (manufactured by Sysmex Corporation, HISCL R4 reagent) was added to the tube and stirred at 2000 rpm at 37° C. for 10 seconds using a constant temperature shaker. 100 μL of a buffer solution (manufactured by Sysmex Corporation, HISCL R5 reagent) containing an ALP luminescent substrate (disodium 2-chloro-5-(4-methoxyspiro{1,2-dioxetane-3,2′-(5′-chloro)-tricyclo[3.3.1.1^3,7]decan}-4-yl)-1-phenyl phosphate) was added to the tube, then the tube was shielded from light and incubated at 37° C. for 4 minutes with stirring at 1600 rpm using a constant temperature shaker. The beads in the tube were precipitated using a magnet, and the supernatant was transferred to a black plate. Luminescence was detected with a luminometer, and the luminescence intensity was measured.
Test Example 2 was carried out in the same manner as in Test Example 1 except that CDK4 or CDK6 was used as CDK and the polypeptides (Polypeptides 2 to 13) obtained in Production Example 2 or Comparative Polypeptide 2 was used as a substrate peptide. V1 to V4 below:
V 1: luminescence intensity when using Comparative Polypeptide 2 and CDK4,
V 2: luminescence intensity when using any of Polypeptides 2 to 17 and A to E, and CDK4,
V 3: luminescence intensity when using Comparative Polypeptide 2 and CDK6, and
V 4: luminescence intensity when using any of Polypeptides 2 to 17 and A to E, and CDK6
were measured, and CDK4/6 reactivity was calculated based on the formula ([(V2/V1)+(V4/V3)]/2). CDK4/6 reactivity is a relative value when the CDK4/6 reactivity of Comparative Polypeptide 2 is set as 1. […]

CDK1/cyclin A2 = target: T1, CDK1/cyclin A2 (Homo sapiens, UniProt P06493); assay: CDK reactivity test 1 (Test Example 1); details: 10 μg/mL CDK/cyclin complex, 4 μg/mL substrate peptide, ATP-γS, 37° C. 1 hour
T1 construct: purchased SignalChem
Description: (§2) The reactivity of the polypeptide obtained in Production Example 1 to CDK1, CDK2, CDK4 and CDK6 was examined. Specifically, it was performed as follows.
as §1

CDK6/cyclin D3 = target: T2, CDK6/cyclin D3 (Homo sapiens, UniProt Q00534); assay: CDK reactivity test 1 (Test Example 1); details: 10 μg/mL CDK/cyclin complex, 4 μg/mL substrate peptide, ATP-γS, 37° C. 1 hour
T2 construct: purchased SignalChem
Description: as §2, §1

CDK2/cyclin E1 = target: T3, CDK2/cyclin E1 (Homo sapiens, UniProt P24941); assay: CDK reactivity test 1 (Test Example 1); details: 10 μg/mL CDK/cyclin complex, 4 μg/mL substrate peptide, ATP-γS, 37° C. 1 hour
T3 construct: purchased SignalChem
Description: as §2, §1

CDK4/cyclin D3 = target: T4, CDK4/cyclin D3 (Homo sapiens, UniProt P11802); assay: CDK reactivity test 1 (Test Example 1); details: 10 μg/mL CDK/cyclin complex, 4 μg/mL substrate peptide, ATP-γS, 37° C. 1 hour
T4 construct: purchased SignalChem
Description: as §2, §1

T2 sequence (Q00534 whole entry): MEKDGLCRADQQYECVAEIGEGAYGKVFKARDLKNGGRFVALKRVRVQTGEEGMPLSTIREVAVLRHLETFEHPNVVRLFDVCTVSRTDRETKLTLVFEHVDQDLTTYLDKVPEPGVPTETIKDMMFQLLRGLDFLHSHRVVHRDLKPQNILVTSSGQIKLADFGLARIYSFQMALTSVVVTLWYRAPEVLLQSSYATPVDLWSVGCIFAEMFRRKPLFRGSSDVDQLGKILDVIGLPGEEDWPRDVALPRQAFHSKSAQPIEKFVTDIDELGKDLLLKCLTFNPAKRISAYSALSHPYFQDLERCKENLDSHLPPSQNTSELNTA
T2 sequence (P30281 whole entry partner): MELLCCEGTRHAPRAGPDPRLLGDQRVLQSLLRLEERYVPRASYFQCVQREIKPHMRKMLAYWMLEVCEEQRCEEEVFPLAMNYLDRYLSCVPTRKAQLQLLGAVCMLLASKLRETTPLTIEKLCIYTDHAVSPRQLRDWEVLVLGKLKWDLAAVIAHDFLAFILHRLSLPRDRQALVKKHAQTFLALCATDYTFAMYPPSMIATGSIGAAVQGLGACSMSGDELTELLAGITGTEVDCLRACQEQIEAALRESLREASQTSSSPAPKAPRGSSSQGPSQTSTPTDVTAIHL
T4 sequence (P11802 whole entry): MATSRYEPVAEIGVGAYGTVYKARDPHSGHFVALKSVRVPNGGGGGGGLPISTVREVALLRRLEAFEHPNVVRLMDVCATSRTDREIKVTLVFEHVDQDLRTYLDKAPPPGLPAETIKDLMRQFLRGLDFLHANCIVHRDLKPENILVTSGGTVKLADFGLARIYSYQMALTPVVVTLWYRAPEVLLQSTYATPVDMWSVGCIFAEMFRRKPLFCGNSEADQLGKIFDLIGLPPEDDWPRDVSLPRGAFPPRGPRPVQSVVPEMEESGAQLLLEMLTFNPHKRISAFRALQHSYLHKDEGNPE
T4 sequence (P30281 whole entry partner): as the sequence (P30281 whole entry partner) above
T1 sequence (P06493 whole entry): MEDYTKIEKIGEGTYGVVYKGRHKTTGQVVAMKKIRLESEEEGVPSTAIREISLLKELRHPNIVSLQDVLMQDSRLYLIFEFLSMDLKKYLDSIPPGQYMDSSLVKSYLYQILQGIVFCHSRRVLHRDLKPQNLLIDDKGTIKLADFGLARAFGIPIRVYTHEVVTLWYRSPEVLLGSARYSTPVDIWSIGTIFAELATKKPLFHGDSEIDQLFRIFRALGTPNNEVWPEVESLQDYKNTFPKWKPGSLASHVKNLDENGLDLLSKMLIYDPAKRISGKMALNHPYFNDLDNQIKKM
T1 sequence (P20248 whole entry partner): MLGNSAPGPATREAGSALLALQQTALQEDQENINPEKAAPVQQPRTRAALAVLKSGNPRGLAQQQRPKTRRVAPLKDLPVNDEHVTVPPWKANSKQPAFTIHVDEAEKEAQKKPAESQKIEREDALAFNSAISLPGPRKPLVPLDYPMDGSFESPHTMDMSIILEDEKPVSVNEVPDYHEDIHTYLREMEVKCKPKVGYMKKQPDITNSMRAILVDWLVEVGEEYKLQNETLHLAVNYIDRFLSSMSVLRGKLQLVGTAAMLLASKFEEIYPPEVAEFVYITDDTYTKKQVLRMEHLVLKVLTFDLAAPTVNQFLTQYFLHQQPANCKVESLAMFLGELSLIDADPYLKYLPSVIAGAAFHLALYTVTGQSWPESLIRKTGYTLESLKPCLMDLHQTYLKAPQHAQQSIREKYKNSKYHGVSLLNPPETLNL

“AMPWSPAPAARAGGG ({Biotin-Ahx}-AMPWSPAPAARAGGG) [Polypeptide F, mutant of Polypeptide 1, N-terminal biotin via aminohexane linker]” was tested, and the “CDK4/6 Reactivity” value (CDK4 and CDK6) was 7.
In the case of “AMPWSPNPWWRGGGG ({Biotin-Ahx}-AMPWSPNPWWRGGGG) [Polypeptide 2, mutant of Polypeptide 1, N-terminal biotin via aminohexane linker]”, the “CDK4/6 Reactivity” value (CDK4 and CDK6) was 15.
For “GAPWSPNPWWRGGGG ({Biotin-Ahx}-GAPWSPNPWWRGGGG) [Polypeptide 3, mutant of Polypeptide 1, N-terminal biotin via aminohexane linker]”, the “CDK4/6 Reactivity” value (CDK4 and CDK6) was 33.
In the case of “GMAWSPNPWWRGGGG ({Biotin-Ahx}-GMAWSPNPWWRGGGG) [Polypeptide 4, mutant of Polypeptide 1, N-terminal biotin via aminohexane linker]”, the “CDK4/6 Reactivity” value (CDK4 and CDK6) was 5.
With “GMFWSPNPWWRGGGG ({Biotin-Ahx}-GMFWSPNPWWRGGGG) [Polypeptide D, mutant of Polypeptide 1, N-terminal biotin via aminohexane linker]” the “CDK4/6 Reactivity” value (CDK4 and CDK6) was 5.
With “GMPASPNPWWRGGGG ({Biotin-Ahx}-GMPASPNPWWRGGGG) [Polypeptide 5, mutant of Polypeptide 1, N-terminal biotin via aminohexane linker]” the “CDK4/6 Reactivity” value (CDK4 and CDK6) was 1.
With “GMPFSPNPWWRGGGG ({Biotin-Ahx}-GMPFSPNPWWRGGGG) [Polypeptide 13, mutant of Polypeptide 1, N-terminal biotin via aminohexane linker]” the “CDK4/6 Reactivity” value (CDK4 and CDK6) was 5.
In the case of “GMPWSANPWWRGGGG ({Biotin-Ahx}-GMPWSANPWWRGGGG) [Polypeptide 6, mutant of Polypeptide 1, N-terminal biotin via aminohexane linker]”, the “CDK4/6 Reactivity” value (CDK4 and CDK6) was 1.
With “GMPWSFNPWWRGGGG ({Biotin-Ahx}-GMPWSFNPWWRGGGG) [Polypeptide 16, mutant of Polypeptide 1, N-terminal biotin via aminohexane linker]” the “CDK4/6 Reactivity” value (CDK4 and CDK6) was 2.
In the case of “GMPWSPAPWWRGGGG ({Biotin-Ahx}-GMPWSPAPWWRGGGG) [Polypeptide 7, mutant of Polypeptide 1, N-terminal biotin via aminohexane linker]”, the “CDK4/6 Reactivity” value (CDK4 and CDK6) was 8.
For “GMPWSPNAWWRGGGG ({Biotin-Ahx}-GMPWSPNAWWRGGGG) [Polypeptide 8, mutant of Polypeptide 1, N-terminal biotin via aminohexane linker]”, the “CDK4/6 Reactivity” value (CDK4 and CDK6) was 7.
With “GMPWSPNPAWRGGGG ({Biotin-Ahx}-GMPWSPNPAWRGGGG) [Polypeptide 9, mutant of Polypeptide 1, N-terminal biotin via aminohexane linker]” the “CDK4/6 Reactivity” value (CDK4 and CDK6) was 7.
“GMPWSPNPWARGGGG ({Biotin-Ahx}-GMPWSPNPWARGGGG) [Polypeptide 10, mutant of Polypeptide 1, N-terminal biotin via aminohexane linker]” was tested, and the “CDK4/6 Reactivity” value (CDK4 and CDK6) was 15.
For “GMPWSPNPWWAGGGG ({Biotin-Ahx}-GMPWSPNPWWAGGGG) [Polypeptide 11, mutant of Polypeptide 1, N-terminal biotin via aminohexane linker]”, the “CDK4/6 Reactivity” value (CDK4 and CDK6) was 3.
With “GMPWSPNPWWHGGGG ({Biotin-Ahx}-GMPWSPNPWWHGGGG) [Polypeptide A, mutant of Polypeptide 1, N-terminal biotin via aminohexane linker]” the “CDK4/6 Reactivity” value (CDK4 and CDK6) was 7.
In the case of “GMPWSPNPWWKGGGG ({Biotin-Ahx}-GMPWSPNPWWKGGGG) [Polypeptide B, mutant of Polypeptide 1, N-terminal biotin via aminohexane linker]”, the “CDK4/6 Reactivity” value (CDK4 and CDK6) was 5.
For “GMPWSPNPWWRAGGG ({Biotin-Ahx}-GMPWSPNPWWRAGGG) [Polypeptide 12, mutant of Polypeptide 1, N-terminal biotin via aminohexane linker]”, the “CDK4/6 Reactivity” value (CDK4 and CDK6) was 6.
In the case of “GMPWSPNPWWRGGGG ({Biotin-Ahx}-GMPWSPNPWWRGGGG) [Polypeptide 1, N-terminal residue biotin-modified via a linker (aminohexane)]”, the “CDK4/6 Reactivity” value (CDK4 and CDK6) was 13, the Luminescence intensity (CDK1/cyclin A2) was 93,190,919 and the Luminescence intensity (CDK6/cyclin D3) was 122,281,045. The Luminescence intensity (CDK2/cyclin E1) was 99,167,362 and the Luminescence intensity (CDK4/cyclin D3) was 101,127,359.
“GMPWSWNPWWRGGGG ({Biotin-Ahx}-GMPWSWNPWWRGGGG) [Polypeptide 15, mutant of Polypeptide 1, N-terminal biotin via aminohexane linker]” was tested, and the “CDK4/6 Reactivity” value (CDK4 and CDK6) was 2.
In the case of “GMPWSYNPWWRGGGG ({Biotin-Ahx}-GMPWSYNPWWRGGGG) [Polypeptide 17, mutant of Polypeptide 1, N-terminal biotin via aminohexane linker]”, the “CDK4/6 Reactivity” value (CDK4 and CDK6) was 2.
With “GMPYSPNPWWRGGGG ({Biotin-Ahx}-GMPYSPNPWWRGGGG) [Polypeptide 14, mutant of Polypeptide 1, N-terminal biotin via aminohexane linker]” the “CDK4/6 Reactivity” value (CDK4 and CDK6) was 5.
“GMWWSPNPWWRGGGG ({Biotin-Ahx}-GMWWSPNPWWRGGGG) [Polypeptide C, mutant of Polypeptide 1, N-terminal biotin via aminohexane linker]” was tested, and the “CDK4/6 Reactivity” value (CDK4 and CDK6) was 5.
In the case of “GMYWSPNPWWRGGGG ({Biotin-Ahx}-GMYWSPNPWWRGGGG) [Polypeptide E, mutant of Polypeptide 1, N-terminal biotin via aminohexane linker]”, the “CDK4/6 Reactivity” value (CDK4 and CDK6) was 6.
“PYKISEGLPTPTKMTPRSRI ({Biotin-Ahx}-PYKISEGLPTPTKMTPRSRI) [Comparative Polypeptide 1, partial peptide of Rb protein which is an in vivo substrate of CDK; N-terminal biotin via aminohexane linker]” was tested, and the Luminescence intensity (CDK1/cyclin A2) was 67,564,327, the Luminescence intensity (CDK6/cyclin D3) was 7,417,238 and the Luminescence intensity (CDK2/cyclin E1) was 104,410,578. For the same sequence, the Luminescence intensity (CDK4/cyclin D3) was 810,674.
“RRRFRPASPLRGPPK ({Biotin-Ahx}-RRRFRPASPLRGPPK) [Comparative Polypeptide 2, polypeptide known as a substrate of CDK4 and CDK6; N-terminal biotin via aminohexane linker]” was tested, and the Luminescence intensity (CDK1/cyclin A2) was 41,516,306, the Luminescence intensity (CDK6/cyclin D3) was 17,316,904 and the Luminescence intensity (CDK2/cyclin E1) was 16,211,368. The Luminescence intensity (CDK4/cyclin D3) was 5,439,800.
